Experimental data taken from ChEMBL document CHEMBL1201862, “PubChem BioAssay data set” (2004).
One block for each compound: values may come before it. Calls of active or inactive are those of the source.

Columns and labels:
Escherichia coli = test: microbe, parasite or virus in culture
[1] = target: T1, Apoptotic protease-activating factor 1 (Homo sapiens, UniProt O14727); assay type: functional
T1 sequence (O14727 whole entry): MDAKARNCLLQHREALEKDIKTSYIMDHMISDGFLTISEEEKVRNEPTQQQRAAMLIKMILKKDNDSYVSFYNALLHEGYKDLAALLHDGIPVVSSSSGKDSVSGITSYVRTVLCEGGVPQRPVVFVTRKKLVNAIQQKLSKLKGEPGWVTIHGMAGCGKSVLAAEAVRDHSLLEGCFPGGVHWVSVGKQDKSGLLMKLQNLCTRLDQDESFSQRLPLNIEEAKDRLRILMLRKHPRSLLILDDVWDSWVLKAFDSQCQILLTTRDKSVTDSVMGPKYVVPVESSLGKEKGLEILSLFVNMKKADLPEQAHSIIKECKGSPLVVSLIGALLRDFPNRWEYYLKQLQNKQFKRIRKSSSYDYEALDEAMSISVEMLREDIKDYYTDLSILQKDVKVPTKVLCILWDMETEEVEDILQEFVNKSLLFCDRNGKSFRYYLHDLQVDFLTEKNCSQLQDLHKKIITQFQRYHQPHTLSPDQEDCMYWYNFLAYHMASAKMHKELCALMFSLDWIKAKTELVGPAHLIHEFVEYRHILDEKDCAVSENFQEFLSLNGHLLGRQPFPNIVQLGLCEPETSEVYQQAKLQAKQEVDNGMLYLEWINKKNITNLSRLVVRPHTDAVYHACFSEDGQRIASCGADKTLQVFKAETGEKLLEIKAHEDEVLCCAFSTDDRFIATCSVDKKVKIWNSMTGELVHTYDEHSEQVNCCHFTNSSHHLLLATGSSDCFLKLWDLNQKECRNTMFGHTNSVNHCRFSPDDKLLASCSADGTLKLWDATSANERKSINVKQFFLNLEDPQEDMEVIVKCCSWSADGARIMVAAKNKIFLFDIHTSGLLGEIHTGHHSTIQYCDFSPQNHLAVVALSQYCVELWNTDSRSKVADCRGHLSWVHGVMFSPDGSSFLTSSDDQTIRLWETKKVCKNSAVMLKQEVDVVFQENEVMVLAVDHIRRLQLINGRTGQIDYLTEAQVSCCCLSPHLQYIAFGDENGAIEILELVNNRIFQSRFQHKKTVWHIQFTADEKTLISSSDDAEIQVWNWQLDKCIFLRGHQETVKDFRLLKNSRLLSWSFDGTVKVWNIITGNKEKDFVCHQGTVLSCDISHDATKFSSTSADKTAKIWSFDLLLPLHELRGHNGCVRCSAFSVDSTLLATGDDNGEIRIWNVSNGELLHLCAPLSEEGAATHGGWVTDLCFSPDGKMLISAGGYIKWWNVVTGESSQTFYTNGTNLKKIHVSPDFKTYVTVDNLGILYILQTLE

[2] = target: T2, DNA repair and recombination protein RAD54-like (Homo sapiens, UniProt Q92698); test: RAD54 Holliday junction migration blockers – biochemical, fluorescence, cherry-picked samples, dose series, confirmation (AID 651657); assay type: functional
T2 sequence (Q92698 whole entry): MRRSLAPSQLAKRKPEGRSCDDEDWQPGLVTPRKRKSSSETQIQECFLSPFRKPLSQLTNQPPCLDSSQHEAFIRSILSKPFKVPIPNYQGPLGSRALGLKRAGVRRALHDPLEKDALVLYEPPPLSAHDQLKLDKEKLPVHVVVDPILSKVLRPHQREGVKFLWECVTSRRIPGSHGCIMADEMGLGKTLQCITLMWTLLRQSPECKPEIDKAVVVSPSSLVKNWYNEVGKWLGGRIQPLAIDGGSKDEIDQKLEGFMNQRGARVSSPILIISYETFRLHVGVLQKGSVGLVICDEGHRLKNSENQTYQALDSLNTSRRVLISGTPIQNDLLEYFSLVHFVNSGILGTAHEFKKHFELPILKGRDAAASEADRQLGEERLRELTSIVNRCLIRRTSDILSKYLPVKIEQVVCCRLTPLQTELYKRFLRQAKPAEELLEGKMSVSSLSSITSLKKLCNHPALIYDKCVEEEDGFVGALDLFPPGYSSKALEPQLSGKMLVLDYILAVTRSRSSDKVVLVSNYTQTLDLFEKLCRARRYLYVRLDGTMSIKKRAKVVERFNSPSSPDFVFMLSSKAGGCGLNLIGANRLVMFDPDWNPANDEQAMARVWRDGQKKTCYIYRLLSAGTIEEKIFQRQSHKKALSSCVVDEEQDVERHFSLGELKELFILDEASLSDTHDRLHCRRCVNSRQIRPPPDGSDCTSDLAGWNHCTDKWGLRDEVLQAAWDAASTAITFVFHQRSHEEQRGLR

[3] = target: T3, Short transient receptor potential channel 4 (Mus musculus, UniProt Q9QUQ5); test: block of DAMGO-driven TRPC4 calcium entry – cell-based, HEK293 TRPC4/mu-opioid, Fluo-4 calcium, dose response (AID 434942); assay type: functional;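 note: potency of inhibitors blocking the TRPC4 calcium response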
T3 sequence (Q9QUQ5 whole entry): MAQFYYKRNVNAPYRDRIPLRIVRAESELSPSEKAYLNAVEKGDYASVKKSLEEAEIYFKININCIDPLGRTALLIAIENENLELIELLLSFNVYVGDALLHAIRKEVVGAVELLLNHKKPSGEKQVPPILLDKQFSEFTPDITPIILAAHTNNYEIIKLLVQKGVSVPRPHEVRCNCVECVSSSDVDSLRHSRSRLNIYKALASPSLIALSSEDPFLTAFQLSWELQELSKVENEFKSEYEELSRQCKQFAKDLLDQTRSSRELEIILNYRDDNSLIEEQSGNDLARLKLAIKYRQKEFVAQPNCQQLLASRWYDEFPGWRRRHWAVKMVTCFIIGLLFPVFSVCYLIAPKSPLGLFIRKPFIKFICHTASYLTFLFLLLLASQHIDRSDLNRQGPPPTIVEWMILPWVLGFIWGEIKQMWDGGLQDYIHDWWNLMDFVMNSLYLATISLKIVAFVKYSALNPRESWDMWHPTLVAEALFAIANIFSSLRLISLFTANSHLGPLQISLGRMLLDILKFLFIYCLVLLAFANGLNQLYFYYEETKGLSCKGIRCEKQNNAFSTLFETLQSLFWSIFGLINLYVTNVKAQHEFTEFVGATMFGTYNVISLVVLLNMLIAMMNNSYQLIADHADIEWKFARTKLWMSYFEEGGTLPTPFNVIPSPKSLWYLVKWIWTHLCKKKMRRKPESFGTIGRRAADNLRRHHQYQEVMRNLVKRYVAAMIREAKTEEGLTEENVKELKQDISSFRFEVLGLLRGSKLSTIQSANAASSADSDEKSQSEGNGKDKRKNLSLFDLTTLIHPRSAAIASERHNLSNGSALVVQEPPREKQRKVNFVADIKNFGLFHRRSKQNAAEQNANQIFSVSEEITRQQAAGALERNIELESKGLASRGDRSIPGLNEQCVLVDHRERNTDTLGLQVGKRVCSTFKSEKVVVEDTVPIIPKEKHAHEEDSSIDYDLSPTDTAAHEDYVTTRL

[4] = target: T4, Heat shock factor protein 1 (Mus musculus, UniProt P38532); test: enhancement of HSF1-driven luciferase signal – cell-based, NIH3T3, luminescence, dose retest, confirmation (AID 435004); assay type: functional;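 note: stress induced by proteasome inhibitor MG132 added 30 min after compound; luciferase reporter driven by HSF1 response element in NIH3T3 cells; actives raise luminescence as potentiators of the MG132 stress response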
T4 sequence (P38532 whole entry): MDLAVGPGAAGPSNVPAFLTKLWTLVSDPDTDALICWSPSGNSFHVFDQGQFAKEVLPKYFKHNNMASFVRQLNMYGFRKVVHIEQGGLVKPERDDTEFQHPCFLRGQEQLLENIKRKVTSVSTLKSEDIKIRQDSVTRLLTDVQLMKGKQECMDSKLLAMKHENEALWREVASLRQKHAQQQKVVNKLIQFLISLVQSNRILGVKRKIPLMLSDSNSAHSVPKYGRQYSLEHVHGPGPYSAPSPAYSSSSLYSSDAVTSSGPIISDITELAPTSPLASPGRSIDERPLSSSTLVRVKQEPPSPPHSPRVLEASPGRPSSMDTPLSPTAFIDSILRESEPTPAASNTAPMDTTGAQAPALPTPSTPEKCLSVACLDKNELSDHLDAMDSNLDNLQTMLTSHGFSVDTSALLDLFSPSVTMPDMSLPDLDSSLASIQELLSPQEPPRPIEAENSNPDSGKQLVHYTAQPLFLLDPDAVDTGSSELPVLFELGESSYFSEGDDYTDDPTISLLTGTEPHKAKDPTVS

[5] = target: T5, Corticotropin-releasing factor receptor 2/Corticotropin-releasing factor-binding protein (Homo sapiens, UniProt P24387+Q13324); test: Dose Response confirmation of uHTS hits for small molecule antagonists of the CRF-binding protein and CRF-R2 receptor complex.; assay type: functional; settings: read-out: IC50_Mean
T5 sequence (Q13324 whole entry): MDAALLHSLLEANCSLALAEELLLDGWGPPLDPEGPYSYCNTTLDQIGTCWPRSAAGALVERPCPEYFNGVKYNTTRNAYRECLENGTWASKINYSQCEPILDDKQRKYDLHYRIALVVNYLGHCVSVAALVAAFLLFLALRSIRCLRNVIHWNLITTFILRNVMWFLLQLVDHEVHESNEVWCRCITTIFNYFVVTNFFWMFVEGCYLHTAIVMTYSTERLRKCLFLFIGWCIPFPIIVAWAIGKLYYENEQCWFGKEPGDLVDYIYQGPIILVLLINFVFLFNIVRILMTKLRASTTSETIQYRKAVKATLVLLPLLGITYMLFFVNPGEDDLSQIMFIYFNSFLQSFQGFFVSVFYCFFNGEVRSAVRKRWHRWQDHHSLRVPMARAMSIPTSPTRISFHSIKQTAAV
T5 sequence (P24387 whole entry): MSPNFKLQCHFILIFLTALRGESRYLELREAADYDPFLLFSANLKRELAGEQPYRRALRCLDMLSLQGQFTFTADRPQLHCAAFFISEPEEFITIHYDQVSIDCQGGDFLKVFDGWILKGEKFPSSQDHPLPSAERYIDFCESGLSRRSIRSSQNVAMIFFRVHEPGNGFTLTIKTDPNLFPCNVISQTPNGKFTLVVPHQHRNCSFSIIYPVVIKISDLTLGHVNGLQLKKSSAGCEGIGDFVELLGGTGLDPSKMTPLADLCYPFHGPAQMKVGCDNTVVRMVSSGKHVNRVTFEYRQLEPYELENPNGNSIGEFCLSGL

[6] = viability loss in HEK293T cells – cell-based, cherry-picks, cytotoxicity control for HIV Vif inhibitor project, dose response (AID 652208); assay type: functional
[7] = target: T5, Corticotropin-releasing factor receptor 2/Corticotropin-releasing factor-binding protein; test: activators of CRF receptor 2 with binding protein – uHTS hits, confirmation (AID 602473); assay type: functional; settings: read-out: EC50_Mean

SMILES: Clc1ccccc1-c1nn2c(-c3ccncc3)nnc2s1
AC50 (Escherichia coli): 23.3 µM (active)
IC50 [1]: 19.1 µM (active)

AC50 [2]: 37.2 µM (active)
EC50 [3]: 2.99 µM (active)
SMILES: Cc1ccc2nc(C)cc(Nc3ccc4c(c3)OCCO4)c2c1

SMILES: CC(Cc1ccccc1)NCC(=O)Nc1cc(N(C)C)nc2ccccc12 (stereo not given)
EC50 [4]: > 260 µM (inactive)
AC50 [2]: 42.1 µM (active)

SMILES: Cc1ccc(-c2cc(C(=O)NCc3ccccn3)c3ccccc3n2)cc1C
IC50 [5]: > 47.1 µM (inactive)
AC50 [6]: 32.7 µM (active)
EC50 [7]: > 53 µM (inactive)

SMILES: O=C(COc1ccc(-n2cnnn2)cc1)Nc1cc(Cl)cc(Cl)c1
AC50 [6]: 18.1 µM (active)
